Test results published in publication PMC2668518 (Bioconjugate chemistry, 2009).

Test: Biodistribution of radiolabeled closo-borate
Type: in vivo, Male athymic mice (nu/nu)
Settings: mice; for tissue(s) with the highest concentration of radionuclide: 1 and 4 h pi; for concentration in urine: 1 h pi, urine at sacrifice; for route of excretion: inferred from tissue distribution at 1 and 4 h pi; for concentration in kidney: injected via lateral tail vein

tissue(s) with the highest concentration of radionuclide	concentration in urine [%ID/g]	route of excretion	concentration in kidney (1 h post injection) [%ID/g]	concentration in kidney (4 h post injection) [%ID/g]	Substance
kidney	320 ± 135	renal clearance	6.6	0.27	[Et3NH]2B10H8I-CONHpropyl [[^125I]1e]
kidney	–	kidney	–	–	[Et3NH]2B12H10At-CONHpropyl [[^211At]2c]
kidney	–	kidney	19.8	26.5	[Et3NH]2B12H10I-CONHpropyl [[^125I]2b]
liver and intestines	33.11 ± 14.06	–	–	–	[nBu4N]2B10H8At-CONHpropyl [[^211At]1c]
liver and intestines	174.43 ± 90.33	hepatobiliary rather than renal	–	–	[nBu4N]2B10H8I-CONHpropyl [[^125I]1b]
